According to patent US20100029619A1, “FUSED HETEROCYCLIC COMPOUND” (TAKEDA PHARMACEUTICAL COMPANY LIMTED, priority 2006, published 2010):
Structures can show the parent of a compound that is named as a salt.

First: CC(C)(C#N)c1ccc(C(=O)Nc2cn3cc(-n4ccnc4)ccc3n2)cc1 [Example 130, 4-(1-cyano-1-methylethyl)-N-[6-(1H-imidazol-1-yl)imidazo[1,2-a]pyridin-2-yl]benzamide]
Second: CC(C)(C)c1ccc(C(=O)Nc2cn3cc(-n4cncn4)ccc3n2)cc1 [Example 469, 4-tert-butyl-N-[6-(1H-1,2,4-triazol-1-yl)imidazo[1,2-a]pyridin-2-yl]benzamide]
The melting point of the first is lower: 241 to 244 °C for the first, 274 to 276 °C for the second.

Compared with `CC(C)(CCO)c1ccc(C(=O)Nc2cn3cc(Cl)ccc3n2)cc1` [Example 467, N-(6-chloroimidazo[1,2-a]pyridin-2-yl)-4-(3-hydroxy-1,1-dimethylpropyl)benzamide], `CC(C)(N)c1ccc(C(=O)Nc2cn3cc(Cl)ccc3n2)cc1` [Example 92, 4-(1-amino-1-methylethyl)-N-(6-chloroimidazo[1,2-a]pyridin-2-yl)benzamide] is higher in melting point: 182 to 184 °C for the first, 235 to 237 °C for the second.

First: Cc1ccc2nc(NC(=O)c3ccc(C(C)(C)C(=O)O)cc3)cn2c1 [Example 20]
Second: CC(C)(C(=O)NCC(O)CO)c1ccc(C(=O)Nc2cn3cc(Cl)ccc3n2)cc1 (stereo not drawn) [Example 454, N-(6-chloroimidazo[1,2-a]pyridin-2-yl)-4-{2-[(2,3-dihydroxypropyl)amino]-1,1-dimethyl-2-oxoethyl}benzamide]
The melting point of the first is higher: 275 to 277 °C for the first, 198 to 199 °C for the second.

First: Cc1ccc2nc(NC(=O)c3ccc(C(C)(C)CCc4noc(=O)[nH]4)cc3)cn2c1 [Example 440, 4-[1,1-dimethyl-3-(5-oxo-4,5-dihydro-1,2,4-oxadiazol-3-yl)propyl]-N-(6-methylimidazo[1,2-a]pyridin-2-yl)benzamide]
Second: CC(C)(C)c1ccc(C(=O)Nc2cn3cc(-c4ccoc4)ccc3n2)cc1 [Example 61, 4-tert-butyl-N-[6-(3-furyl)imidazo[1,2-a]pyridin-2-yl]benzamide]
The melting point of the first is higher: 267 to 268 °C for the first, 258 to 259 °C for the second.

Compared with `CC(C)(C)c1ccc(C(=O)Nc2cn3c4c(ccc3n2)OCC4)cn1` (as salt: hydrochloride) [Example 18, 6-tert-butyl-N-(1,2-dihydrofuro[2,3-e]imidazo[1,2-a]pyridin-7-yl)nicotinamide dihydrochloride], `CC(C)(C)c1ccc(C(=O)Nc2cn3nc(NC4CCCC4)ccc3n2)cc1` [Example 165, 4-tert-butyl-N-[6-(cyclopentylamino)imidazo[1,2-b]pyridazin-2-yl]benzamide] is higher in melting point: 199 to 200 °C for the first, 272 to 273 °C for the second.

First: CC(C)(CNC(=O)c1c[nH]cn1)c1ccc(C(=O)Nc2cn3cc(C(F)(F)F)ccc3n2)cc1 [Example 456, N-[2-methyl-2-(4-{[6-(trifluoromethyl)imidazo[1,2-a]pyridin-2-yl]carbamoyl}phenyl)propyl]-1H-imidazole-4(5)-carboxamide]
Second: COC(=O)C(C)(C)c1ccc(C(=O)Nc2cn3cc(-c4ccsc4)ccc3n2)cc1 [Example 24, methyl 2-methyl-2-(4-{[6-(3-thienyl)imidazo[1,2-a]pyridin-2-yl]carbamoyl}phenyl)propanoate]
The melting point of the first is lower: 174 to 176 °C for the first, 200 to 201 °C for the second.

Going from `CC(C)(C)c1ccc(C(=O)Nc2cn3nc(NCCc4cccnc4)ccc3n2)cc1` [Example 163, 4-tert-butyl-N-{6-[(2-pyridin-3-ylethyl)amino]imidazo[1,2-b]pyridazin-2-yl}benzamide] to `CC(C)(C)c1ccc(C(=O)Nc2cn3nc(NCCc4ccncc4)ccc3n2)cc1` [Example 162, 4-tert-butyl-N-{6-[(2-pyridin-4-ylethyl)amino]imidazo[1,2-b]pyridazin-2-yl}benzamide], the melting point rises from 231 °C to 279 °C.

With `CC(C)(CCC(=O)O)c1ccc(C(=O)Nc2cn3cc(Cl)ccc3n2)cc1` [Example 118, 4-(4-{[(6-chloroimidazo[1,2-a]pyridin-2-yl)amino]carbonyl}phenyl)-4-methylpentanoic acid] the melting point was 309 to 311 °C (dec.).
